Assays:
[1] = tested on: Fusarium culmorum; experiment: microbe, parasite or virus in culture; format: cell-based; details: read-out: control of Fusarium culmorum
[2] = tested on: Fusarium culmorum; experiment: whole plant or invertebrate; format: in vivo; details: in Triticum aestivum, read-out: control of Fusarium culmorum
[3] = tested on: Glomerella lagenarium (Colletotrichum lagenarium); experiment: Glomerella lagenarium (Colletotrichum lagenarium) / liquid culture (anthracnose); format: cell-based; details: Colletotrichum orbiculare; read-out: control of Glomerella lagenarium
[4] = tested on: Monographella nivalis (Microdochium nivale); experiment: Monographella nivalis (Microdochium nivale) / liquid culture (foot rot cereals); format: cell-based; details: 96 h, read-out: control of Monographella nivalis
[5] = tested on: Botryotinia fuckeliana (Botrytis cinerea); experiment: Botryotinia fuckeliana (Botrytis cinerea) / liquid culture (gray mould); format: cell-based; details: 72 h, read-out: control of Botryotinia fuckeliana
[6] = tested on: Magnaporthe grisea (Pyricularia oryzae); experiment: microbe, parasite or virus in culture; format: cell-based; details: 72 h, read-out: control of Magnaporthe grisea

## CC(F)(F)C[C@](C)(Cc1ccccc1)NC(=O)c1cnc2c(F)cccc2c1 [Compound F-39, N-[(1S)-1-benzyl-3,3-difluoro-1-methyl-butyl]-8-fluoro-quinoline-3-carboxamide]
[1]
  inhibition of growth at 200 ppm: ≥ 80%
[2]
  pest or weed control at 200 ppm: ≥ 80%
[3]
  inhibition of growth at 200 ppm: ≥ 80%
[4]
  inhibition of growth at 200 ppm: ≥ 80%
[5]
  inhibition of growth at 200 ppm: ≥ 80%
[6]
  inhibition of growth at 200 ppm: ≥ 80%

## C=C(C)CC(C)(NC(=O)c1cnc2c(F)cccc2c1)C(F)(F)c1ccccc1 (stereo not shown) [Compound E-51, N-[1-[difluoro(phenyl)methyl]-1,3-dimethyl-but-3-enyl]-8-fluoro-quinoline-3-carboxamide]
[1]
  inhibition of growth at 200 ppm: ≥ 80%
[2]
  pest or weed control at 200 ppm: ≥ 80%
[3]
  inhibition of growth at 200 ppm: ≥ 80%
[5]
  inhibition of growth at 200 ppm: ≥ 80%
[6]
  inhibition of growth at 200 ppm: ≥ 80%

## CC(C)CC(C)(NC(=O)c1cnc2ccccc2c1)C(F)(F)c1ccccc1 (stereo not shown) [Compound E-59, N-[1-[difluoro(phenyl)methyl]-1,3-dimethyl-butyl]quinoline-3-carboxamide]
[1]
  inhibition of growth at 200 ppm: ≥ 80%
[2]
  pest or weed control at 200 ppm: ≥ 80%
[4]
  inhibition of growth at 200 ppm: ≥ 80%
[5]
  inhibition of growth at 200 ppm: ≥ 80%
[6]
  inhibition of growth at 200 ppm: ≥ 80%

## COc1ccc2cc(C(=O)NC(C)(Cc3ccccc3)CC(C)C)cnc2c1 (stereo not shown) [Compound E-122, N-(1-benzyl-1,3-dimethyl-butyl)-7-methoxy-quinoline-3-carboxamide]
[4]
  inhibition of growth at 200 ppm: ≥ 80%
other
  melting point: 136 to 138 °C

## COC(C)(C)CC(C)(Cc1ccccc1)NC(=O)c1cnc2c(F)cccc2c1 (stereo not shown) [Compound E-118, N-(1-benzyl-3-methoxy-1,3-dimethyl-butyl)-8-fluoro-quinoline-3-carboxamide]
[1]
  inhibition of growth at 200 ppm: ≥ 80%
[3]
  inhibition of growth at 200 ppm: ≥ 80%
[4]
  inhibition of growth at 200 ppm: ≥ 80%
[5]
  inhibition of growth at 200 ppm: ≥ 80%
other
  melting point: 118 to 120 °C

## CC(Cc1cccc(F)c1)(CC(F)(F)F)NC(=O)c1cnc2c(F)cccc2c1 (stereo not shown) [Compound E-99, 8-fluoro-N-[3,3,3-trifluoro-1-[(3-fluorophenyl)methyl]-1-methyl-propyl]quinoline-3-carboxamide]
[1]
  inhibition of growth at 200 ppm: ≥ 80%
[2]
  pest or weed control at 200 ppm: ≥ 80%
[3]
  inhibition of growth at 200 ppm: ≥ 80%
[4]
  inhibition of growth at 200 ppm: ≥ 80%
[5]
  inhibition of growth at 200 ppm: ≥ 80%
other
  melting point: 149 to 151 °C

## COc1cccc2cc(C(=O)NC(C)(Cc3ccccc3)CC(C)C)cnc12 (stereo not shown) [Compound E-123, N-(1-benzyl-1,3-dimethyl-butyl)-8-methoxy-quinoline-3-carboxamide]
[1]
  inhibition of growth at 200 ppm: ≥ 80%
[4]
  inhibition of growth at 200 ppm: ≥ 80%
[5]
  inhibition of growth at 200 ppm: ≥ 80%
other
  melting point: 155 to 156 °C

## CC(C)CC(C)(Cc1ccccc1)NC(=O)c1cnc2cc(Cl)ccc2c1 (stereo not shown) [Compound E-65, N-(1-benzyl-1,3-dimethyl-butyl)-7-chloro-quinoline-3-carboxamide]
[1]
  inhibition of growth at 200 ppm: ≥ 80%
[5]
  inhibition of growth at 200 ppm: ≥ 80%
other
  melting point: 172 to 174 °C
[6]
  inhibition of growth at 200 ppm: ≥ 80%

## CC(C)CC(C)(NC(=O)c1cnc2c(F)cccc2c1)C(F)(F)c1ccccc1 (stereo not shown) [Compound E-54, N-[1-[difluoro(phenyl)methyl]-1,3-dimethyl-butyl]-8-fluoro-quinoline-3-carboxamide]
[1]
  inhibition of growth at 200 ppm: ≥ 80%
[3]
  inhibition of growth at 200 ppm: ≥ 80%
[4]
  inhibition of growth at 200 ppm: ≥ 80%
[5]
  inhibition of growth at 200 ppm: ≥ 80%
[6]
  inhibition of growth at 200 ppm: ≥ 80%

## CC(C)(F)CC(C)(Cc1ccccc1)NC(=O)c1cnc2c(F)cccc2c1 (stereo not shown) [Compound E-56, N-(1-benzyl-3-fluoro-1,3-dimethyl-butyl)-8-fluoro-quinoline-3-carboxamide]
[1]
  inhibition of growth at 200 ppm: ≥ 80%
[2]
  pest or weed control at 200 ppm: ≥ 80%
[3]
  inhibition of growth at 200 ppm: ≥ 80%
[4]
  inhibition of growth at 200 ppm: ≥ 80%
[5]
  inhibition of growth at 200 ppm: ≥ 80%
[6]
  inhibition of growth at 200 ppm: ≥ 80%

## CC(F)(F)CC(C)(Cc1ccccc1)NC(=O)c1cnc2c(F)cccc2c1 (stereo not shown) [Compound E-50, N-(1-benzyl-3,3-difluoro-1-methyl-butyl)-8-fluoro-quinoline-3-carboxamide]
[1]
  inhibition of growth at 200 ppm: ≥ 80%
[2]
  pest or weed control at 200 ppm: ≥ 80%
[3]
  inhibition of growth at 200 ppm: ≥ 80%
[5]
  inhibition of growth at 200 ppm: ≥ 80%
[6]
  inhibition of growth at 200 ppm: ≥ 80%

## CC(C)(F)CC(C)(Cc1ccccc1)NC(=O)c1cnc2ccccc2c1 (stereo not shown) [Compound E-57, N-(1-benzyl-3-fluoro-1,3-dimethyl-butyl)quinoline-3-carboxamide]
[1]
  inhibition of growth at 200 ppm: ≥ 80%
[2]
  pest or weed control at 200 ppm: ≥ 80%
[3]
  inhibition of growth at 200 ppm: ≥ 80%
[4]
  inhibition of growth at 200 ppm: ≥ 80%
[5]
  inhibition of growth at 200 ppm: ≥ 80%
[6]
  inhibition of growth at 200 ppm: ≥ 80%

## CC(F)(F)C[C@@](C)(Cc1ccccc1)NC(=O)c1cnc2c(F)cccc2c1 [Compound F-40, N-[(1R)-1-benzyl-3,3-difluoro-1-methyl-butyl]-8-fluoro-quinoline-3-carboxamide]
[1]
  inhibition of growth at 200 ppm: ≥ 80%
[2]
  pest or weed control at 200 ppm: ≥ 80%
[3]
  inhibition of growth at 200 ppm: ≥ 80%
[5]
  inhibition of growth at 200 ppm: ≥ 80%
[6]
  inhibition of growth at 200 ppm: ≥ 80%

## CC(Cc1ccccc1)(CC(F)(F)F)NC(=O)c1cnc2cc(Cl)ccc2c1 (stereo not shown) [Compound E-69, N-(1-benzyl-3,3,3-trifluoro-1-methyl-propyl)-7-chloro-quinoline-3-carboxamide]
[1]
  inhibition of growth at 200 ppm: ≥ 80%
[2]
  pest or weed control at 200 ppm: ≥ 80%
[3]
  inhibition of growth at 200 ppm: ≥ 80%
[5]
  inhibition of growth at 200 ppm: ≥ 80%
other
  melting point: 174 to 176 °C
[6]
  inhibition of growth at 200 ppm: ≥ 80%

## O=C(NC(CCC(F)(F)F)Cc1ccccc1)c1cnc2c(F)cccc2c1 (stereo not shown) [Compound E-16, N-(1-benzyl-4,4,4-trifluoro-butyl)-8-fluoro-quinoline-3-carboxamide]
[1]
  inhibition of growth at 200 ppm: ≥ 80%
[2]
  pest or weed control at 200 ppm: ≥ 80%
[5]
  inhibition of growth at 200 ppm: ≥ 80%
other
  melting point: 157 to 161 °C
[6]
  inhibition of growth at 200 ppm: ≥ 80%

## C[C@@](Cc1ccccc1)(CC(F)(F)F)NC(=O)c1cnc2c(F)c(F)ccc2c1 [Compound F-38, N-[(1R)-1-benzyl-3,3,3-trifluoro-1-methyl-propyl]-7,8-difluoro-quinoline-3-carboxamide]
[1]
  inhibition of growth at 200 ppm: ≥ 80%
[3]
  inhibition of growth at 200 ppm: ≥ 80%
[5]
  inhibition of growth at 200 ppm: ≥ 80%
[6]
  inhibition of growth at 200 ppm: ≥ 80%

## CC(Cc1ccc(F)cc1)(CC(F)(F)F)NC(=O)c1cnc2c(F)cccc2c1 (stereo not shown) [Compound E-66, 8-fluoro-N-[3,3,3-trifluoro-1-[(4-fluorophenyl)methyl]-1-methyl-propyl]quinoline-3-carboxamide]
[1]
  inhibition of growth at 200 ppm: ≥ 80%
[2]
  pest or weed control at 200 ppm: ≥ 80%
[3]
  inhibition of growth at 200 ppm: ≥ 80%
[5]
  inhibition of growth at 200 ppm: ≥ 80%
other
  melting point: 146 to 147 °C
[6]
  inhibition of growth at 200 ppm: ≥ 80%

## CC(Cc1ccccc1)(CC1CCC1)NC(=O)c1cnc2c(F)cccc2c1 (stereo not shown) [Compound E-112, N-(1-benzyl-2-cyclobutyl-1-methyl-ethyl)-8-fluoro-quinoline-3-carboxamide]
[1]
  inhibition of growth at 200 ppm: ≥ 80%
[3]
  inhibition of growth at 200 ppm: ≥ 80%
[4]
  inhibition of growth at 200 ppm: ≥ 80%
[5]
  inhibition of growth at 200 ppm: ≥ 80%
other
  melting point: 125 to 127 °C

## CC(F)(F)CC(C)(Cc1ccccc1)NC(=O)c1cnc2ccccc2c1 (stereo not shown) [Compound E-52, N-(1-benzyl-3,3-difluoro-1-methyl-butyl)quinoline-3-carboxamide]
[1]
  inhibition of growth at 200 ppm: ≥ 80%
[2]
  pest or weed control at 200 ppm: ≥ 80%
[3]
  inhibition of growth at 200 ppm: ≥ 80%
[5]
  inhibition of growth at 200 ppm: ≥ 80%
other
  melting point: 131 to 133 °C
[6]
  inhibition of growth at 200 ppm: ≥ 80%

## C=C(C)CC(COC)(Cc1ccccc1)NC(=O)c1cnc2c(F)cccc2c1 (stereo not shown) [Compound E-103, N-[1-benzyl-1-(methoxymethyl)-3-methyl-but-3-enyl]-8-fluoro-quinoline-3-carboxamide]
[1]
  inhibition of growth at 200 ppm: ≥ 80%
[2]
  pest or weed control at 200 ppm: ≥ 80%
[3]
  inhibition of growth at 200 ppm: ≥ 80%
[4]
  inhibition of growth at 200 ppm: ≥ 80%
[5]
  inhibition of growth at 200 ppm: ≥ 80%
other
  melting point: 147 to 149 °C

## C[C@](Cc1ccccc1)(CC(F)(F)F)NC(=O)c1cnc2c(F)c(F)ccc2c1 [Compound F-37, N-[(1S)-1-benzyl-3,3,3-trifluoro-1-methyl-propyl]-7,8-difluoro-quinoline-3-carboxamide]
[1]
  inhibition of growth at 200 ppm: ≥ 80%
[2]
  pest or weed control at 200 ppm: ≥ 80%
[3]
  inhibition of growth at 200 ppm: ≥ 80%
[5]
  inhibition of growth at 200 ppm: ≥ 80%
[6]
  inhibition of growth at 200 ppm: ≥ 80%

## CC(C)CC(C)(Cc1ccccc1C#N)NC(=O)c1cnc2c(F)cccc2c1 (stereo not shown) [Compound E-44, N-[1-[(2-cyanophenyl)methyl]-1,3-dimethyl-butyl]-8-fluoro-quinoline-3-carboxamide]
[1]
  inhibition of growth at 200 ppm: ≥ 80%
[2]
  pest or weed control at 200 ppm: ≥ 80%
[3]
  inhibition of growth at 200 ppm: ≥ 80%
[5]
  inhibition of growth at 200 ppm: ≥ 80%
other
  melting point: 43 to 44 °C
[6]
  inhibition of growth at 200 ppm: ≥ 80%

## CC(Cc1ccccc1)(CC(F)(F)F)NC(=O)c1cnc2c(C#N)cccc2c1 (stereo not shown) [Compound E-62, N-(1-benzyl-3,3,3-trifluoro-1-methyl-propyl)-8-cyano-quinoline-3-carboxamide]
[1]
  inhibition of growth at 200 ppm: ≥ 80%
[2]
  pest or weed control at 200 ppm: ≥ 80%
[3]
  inhibition of growth at 200 ppm: ≥ 80%
[5]
  inhibition of growth at 200 ppm: ≥ 80%
other
  melting point: 175 to 179 °C
[6]
  inhibition of growth at 200 ppm: ≥ 80%

## CC(C)CC(C)(Cc1ccc(C#N)cc1)NC(=O)c1cnc2c(F)cccc2c1 (stereo not shown) [Compound E-32, N-[1-[(4-cyanophenyl)methyl]-1,3-dimethyl-butyl]-8-fluoro-quinoline-3-carboxamide]
[1]
  inhibition of growth at 200 ppm: ≥ 80%
[3]
  inhibition of growth at 200 ppm: ≥ 80%
[5]
  inhibition of growth at 200 ppm: ≥ 80%
other
  melting point: 67 to 69 °C
[6]
  inhibition of growth at 200 ppm: ≥ 80%

Source: US10477864B2, “Microbiocidal quinoline (thio)carboxamide derivatives” (priority 2016, dated 2019)
